Experimental data taken from patent US10926086B2, “Lymphatic system neuromodulation and uses thereof” (THE FEINSTEIN INSTITUTES FOR MEDICAL RESEARCH, priority 2016, dated 2021).

B1: OVA: ovalbumin labeled with IrDye 800CW-NHS ester infrared fluorescent dye (conjugate, UniProt P01012 2-386, looked up)
Ovalbumin: GSIGAASMEFCFDVFKELKVHHANENIFYCPIAIMSALAMVYLGAKDSTRTQINKVVRFDKLPGFGDSIEAQCGTSVNVHSSLRDILNQITKPNDVYSFSLASRLYAEERYPILPEYLQCVKELYRGGLEPINFQTAADQARELINSWVESQTNGIIRNVLQPSSVDSQTAMVLVNAIVFKGLWEKAFKDEDTQAMPFRVTEQESKPVQMMYQIGLFRVASMASEKMKILELPFASGTMSMLVLLPDEVSGLEQLESIINFEKLTEWTSSNVMEERKIKVYLPRMKMEEKYNLTSVLMAMGITDVFSSSANLSGISSAESLKISQAVHAAHAEINEAGREVVGSAEAGVDAASVSEEFRADHPFLFCIKHIATNAVLFFGRCVSP
modifications: IRDye 800CW label
notes: ovalbumin labeled with IrDye 800CW-NHS ester infrared fluorescent dye

How the values were obtained:
[1] = tested on: Mice immunized with KLH; test: Nerve block: antigen signal in sciatic lymph node after bupivacaine; format: in vivo; conditions: 25 μl bupivacaine 0.375% at sciatic and femoral nerves before KLH-800CW in hind paw, imaged after one hour, mean±SEM, saline control 31.45±3.759, p<0.05
Description: In situ Antigen Imaging. 20 μl of 100 μg/ml labeled antigen was injected subcutaneously into the dorsum of the hind paw with an insulin syringe. After the predetermined time, the animal was euthanized using carbon dioxide, the skin over the area of interest was removed, and the animal was placed in a supine position in an Odyssey infrared imager. To image lymph node antigen content, sciatic and popliteal lymph nodes were surgically removed and placed into black, clear-bottomed 96-well plates filled with T-per (Thermo Scientific). These plates were imaged on the Odyssey imager. Immunization. Unlabeled antigen (100 μg) and 50% Imject alum (Thermo Scientific) in 200 μl 0.9% saline was injected intraperitoneally. Two weeks later, animals were injected again with the same solution as a booster. Two weeks after the booster injection, animals were used for experiments. Control animals received injections of 50% alum in saline. Nerve Block. Mice were immunized with 100 μg antigen and 50% Imject alum in 200 μl saline injected intraperitoneally twice, two weeks apart. Two weeks after the second injections, 25 μl bupivacaine (0.375%, APP Pharmaceuticals) or 0.9% saline was injected at the sciatic nerve and the femoral nerve of the hind leg. 20 minutes after the initial injection, animals were injected with labeled antigen in the dorsum of the hind paw. […]

[2] = tested on: Naïve Balb/c mice; test: Passive immunization: labeled antigen accumulation in sciatic lymph nodes; format: in vivo; conditions: naïve mice given rabbit polyclonal anti-OVA antibodies i.p.; 24 hours later 800CW-labeled antigen s.c. in dorsum of hind paw; imaged after one hour; mean±SEM
Description: In situ Antigen Imaging. 20 μl of 100 μg/ml labeled antigen was injected subcutaneously into the dorsum of the hind paw with an insulin syringe. After the predetermined time, the animal was euthanized using carbon dioxide, the skin over the area of interest was removed, and the animal was placed in a supine position in an Odyssey infrared imager. To image lymph node antigen content, sciatic and popliteal lymph nodes were surgically removed and placed into black, clear-bottomed 96-well plates filled with T-per (Thermo Scientific). These plates were imaged on the Odyssey imager.
Passive Immunization. Naïve Balb/c mice were injected intraperitoneally with 100 μg rabbit polyclonal anti-ovalbumin antibody (Millipore). After 24 hours, mice were injected with OVA-800CW or KLH-800CW subcutaneously in the dorsum of the hind paw. After one hour, mice were euthanized and imaged.

Molecule | antigen signal in the sciatic lymph node (KLH-800CW fluorescence) [1] | accumulation of labeled antigen in the sciatic lymph nodes (fluorescence signal) [2]
CCCCN1CCCCC1C(=O)Nc1c(C)cccc1C (centres unmarked) [bupivacaine] | 45.65±5.350 | 
B1 |  | 6.483±1.461
